Assay results reported in publication PMC12549899 (Nature Communications, 2025).
Residue numbers refer to the chain shown, from its start. Several values for one entry are separate records, joined by “and”; a condition that tells them apart may be missing. Identical values can stand only once.

What was measured:
DrOTOP1 L205W = biological target: T1, DrOTOP1 L205W (Danio rerio, UniProt Q7ZWK8, L205W); test: Whole-cell patch-clamp, inhibition of acid-evoked currents, DrOTOP1 L205W; assay type: cell-based, zebrafish (Danio rerio); conditions: single cells or mean; for Inhibition of currents: 10 µM
T1 construct: A previously generated codon-optimized full-length DrOTOP1[8]; (UniProt: Q7ZWK8) construct; expressed in transfected cells; host or cells: HEK-293 (CRL-1573, ATCC)
T1 sequence (Q7ZWK8 1-586 L205W): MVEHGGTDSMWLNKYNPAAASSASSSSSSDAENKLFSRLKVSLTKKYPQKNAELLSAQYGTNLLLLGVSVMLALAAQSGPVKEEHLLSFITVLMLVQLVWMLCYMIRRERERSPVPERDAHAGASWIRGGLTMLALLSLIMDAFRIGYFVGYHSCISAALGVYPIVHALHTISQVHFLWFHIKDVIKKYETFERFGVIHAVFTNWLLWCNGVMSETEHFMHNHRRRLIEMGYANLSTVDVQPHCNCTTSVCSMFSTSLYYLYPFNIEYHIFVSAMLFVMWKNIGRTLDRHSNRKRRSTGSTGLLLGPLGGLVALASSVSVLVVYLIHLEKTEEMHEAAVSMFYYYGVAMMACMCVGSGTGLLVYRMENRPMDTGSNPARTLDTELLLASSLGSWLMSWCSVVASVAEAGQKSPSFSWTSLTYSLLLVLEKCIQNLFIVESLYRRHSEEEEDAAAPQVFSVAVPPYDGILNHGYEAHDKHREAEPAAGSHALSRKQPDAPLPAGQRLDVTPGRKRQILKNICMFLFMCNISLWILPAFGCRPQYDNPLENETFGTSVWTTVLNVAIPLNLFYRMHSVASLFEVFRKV
Source text: (§1) To functionally test the significance of the two binding sites identified by cryo-EM, we generated point mutations of DrOTOP1 using the binding poses and conformational changes observed in DrOTOP1_C2.2 to guide our mutations. As per the binding pose that best fits our cryo-EM density, C2.2 forms the following interactions in the outer site: hydrophobic packing against many non-polar residues W126, G130, M133, L134, F271, F570, and M573, and π-stacking with W532 (Fig. 5A). In addition, C2.2 could potentially form H-bonds with E267, if the sidechain is protonated or a water bridge is present, and with H574 if it moves closer (Fig. 5A). Likewise, C2.36 presents a heterocyclic nitrogen that can potentially form a H-bond with E267, similarly, provided a protonation or water bridge is present (Fig. 5B). In addition, C2.36 forms a T-shaped π-stacking interaction with H574, whose sidechain has rotated 90 degrees (compared to DrOTOP1_apo), presumably to accommodate the interaction (Fig. 5B). Considering other inhibitors discovered from the second round of screening, many contain functional groups like the carbonyl groups of Group 1 molecules and the heterocyclic nitrogen atoms of Group 2 molecules (Supplementary Fig. 3E), that can potentially form similar H-bonds with E267 as C2.2 and C2.36, assuming the binding modes are similar. In the central site, C2.2 binds with the following interactions: hydrophobic packing with residues V201, F271, A274, V278, and A388, π-stacking with F277, and H-bonding with E384 (Fig. 5C).
We next tested mutations of the central site (L205W, A274W, F277A, E384A L385W, A388W). V201W and S389W, two additional central site mutations, were excluded from the study due to complete loss of channel activity. […]
(§2) Whole-cell patch-clamp recording was performed as previously described[6],[22],[25]. Recordings were made with an Axopatch 200B amplifier, digitized with a Digidata 1322a 16-bit data acquisition system, acquired with pClamp 8.2 and analyzed with Clampfit 10 (Molecular Devices). […]

DrOTOP1 A388W = biological target: T2, DrOTOP1 A388W (Danio rerio, UniProt Q7ZWK8, A388W); test: Whole-cell patch-clamp, inhibition of acid-evoked currents, DrOTOP1 A388W; assay type: cell-based, zebrafish (Danio rerio); conditions: single cells
T2 construct: A previously generated codon-optimized full-length DrOTOP1[8]; (UniProt: Q7ZWK8) construct; expressed in transfected cells; host or cells: HEK-293 (CRL-1573, ATCC)
T2 sequence (Q7ZWK8 1-586 A388W): T1 sequence (Q7ZWK8 1-586 L205W) with W205L, A388W
Source text: as §1, with “Considering other inhibitors discovered from the second round of screening, many contain functional groups like the carbonyl groups of Group 1 molecules and the heterocyclic nitrogen atoms of Group 2 molecules (Supplementary Fig. 3E), that can potentially form similar H-bonds with E267 as C2.2 and C2.36, assuming the binding modes are similar. In the central site, C2.2 binds with the following interactions: hydrophobic packing with residues V201, F271, A274, V278, and A388, π-stacking with F277, and H-bonding with E384 (Fig. 5C).” left out
as §2

## C=C(C)COc1ccccc1NC(=O)c1nc[nH]c1C [C2.2]
DrOTOP1 L205W; mean
  Inhibition of currents: 69.03%
DrOTOP1 L205W; single cells
  Inhibition of currents: 76.6896% and 67.1049% and 68.1116% and 69.0311%
DrOTOP1 L205W
  inhibition at 10 µM: 64.2%

## O=C(/C(=N\O)c1ccccc1)c1ccccc1 [C11, benzil monoxime]
DrOTOP1 A388W; 100 µM
  Inhibition of currents: 53.4353% and 72.6918% and 53.0458% and 57.2816% and 61.0959%
DrOTOP1 A388W
  inhibition at 100 µM: 72.4%
